Experimental data published in patent US20100303790A1, “USE OF BILIVERDIN REDUCTASE (BVR) AND BVR PEPTIDE FRAGMENTS TO TREAT CORONARY DISORDERS” (UNIVERSITY OF ROCHESTER, priority 2009, published 2010).

Assays:
[1] = test system: rat neonatal cardiomyocytes; assay: BVR, HO-2 and HO-1 mRNA in isoproterenol-stimulated cardiomyocytes (RT-PCR); format: cell-based; settings: 10 μM isoproterenol
Protocol: (§1) Neonatal Rat Cardiomyocytes: Primary cultures of neonatal rat cardiomyocytes were prepared as described previously (Ding et al., “Functional Role of Phosphodiesterase 3 in Cardiomyocyte Apoptosis: Implication in Heart Failure,” Circulation 111:2469-2476 (2005) which is hereby incorporated by reference in its entirety). Briefly, fragmented ventricular tissue from 1-2 day old Sprague-Dawley rats was subjected to multiple rounds of enzymatic digestion with collagenase II (Worthington, Lakewood, N.J.). The cells were then collected by low speed centrifugation at 4° C. Non-myocytes were removed by two rounds of pre-plating the cells on culture dishes. The enriched cardiomyocytes were cultured in DMEM with 10% FBS and 10% horse serum. The day after cell adhesion, 10 μM cytosine 1-β-D-arabinofuranoside (Sigma, St. Louis, Mo.) was added to inhibit the growth of contaminating non-myocytes.
Quantitative RT-PCR: Total RNA was isolated using Trizol reagent (Invitrogen). The first-strand cDNA synthesis and quantitative polymerase chain reaction (RT-PCR) were performed as previously described (Tudor et al., “Biliverdin Reductase is a Transporter of Haem into the Nucleus and is Essential for Regulation of HO-1 Gene Expression by Haematin,” Biochem J 413:405-416 (2008), which is hereby incorporated by reference in its entirety). The following primers were used for PCR analysis: […]
PCR products were resolved by electrophoresis and quantified by image analysis of stained gels.
The question of whether the increased synthesis of each protein required elevated levels of BVR and HO-2 mRNA was investigated by RT-PCR. […] HO-1 protein expression was not detected throughout the whole process of isoproterenol treatment up to 96 hours.

[2] = test system: rat neonatal cardiomyocytes; assay: BVR, HO-2 and HO-1 protein levels in rat neonatal cardiomyocytes (western blot); format: cell-based
Protocol: as §1
Plasmids and Constructs: Adenovirus for expression of an endogenous PKA inhibitor (PKA251 bp) was prepared as described previously (Ding et al., “Functional Role of Phosphodiesterase 3 in Cardiomyocyte Apoptosis: Implication in Heart Failure,” Circulation 111:2469-2476 (2005), which is hereby incorporated by reference in its entirety). Rat BVR and HO-2 siRNA were designed based on the human sequences (Miralem et al., “Small Interference RNA-Mediated Gene Silencing of Human Biliverdin Reductase, but not that of Heme Oxygenase-1, Attenuates Arsenite-Mediated Induction of the Oxygenase and Increases Apoptosis in 293A Kidney Cells,” J Biol Chem 280:17084-17092 (2005), which is hereby incorporated by reference in its entirety). The BVR targeting site is at nucleotides 94-114, and the HO-2 targeting site is at nucleotides 73-93, downstream of the start codon in each case. Oligonucleotides containing the sequence of a 21 nucleotide small interference RNA were synthesized as follows: BVR siRNA, 5′-GATCCCC ([…]) TTCAAGAG ([…]) TTTTTGGAAA (SEQ ID NO:61) and 5′-AGCTTTTCCAAAAA ([…]) TCTCTTGAA ([…]) GGG (SEQ ID NO:62; HO-2 siRNA, 5′-GATCCCC ([…]) TTCAAGAGA ([…]) TTTTTGGAAA (SEQ ID NO:63) and 3′-AGCTTTTCCAAAAA ([…]) TCTCTTGAA ([…]) GGG (SEQ ID NO:64). Complementary oligonucleotides were annealed, then ligated into pSuper-Retro vector (OligoEngine Co. Seattle, Wash.). E. coli clones containing the desired constructs were identified by restriction analysis and verified by DNA sequencing. The retroviral DNA vectors for generating BVR si-rRNA and […] were transfected into the HEK293A packaging cell line, and the supernatant containing the expressed si-rBVR or si-rHO-2 retrovirus was then titrated in NIH3T3 cells. Retrovirus expressing siRNA was used to infect cells at a multiplicity of infection of 4 plaque-forming units/cell. The plasmid pcDNA-hBVR has previously been described (Lerner-Marmarosh et al., “Human Biliverdin Reductase: A Member of the Insulin Receptor Substrate Family with Serine/Threonine/Tyrosine Kinase Activity,” Proc Natl Acad Sci US A 102:7109-7114 (2005), which is hereby incorporated by reference in its entirety); pcDNA-hHO2 was constructed by cloning the HO-2 open reading frame into pcDNA3. […]

[3] = 10 μM isoproterenol, western blot

CC(C)NCC(O)c1ccc(O)c(O)c1 (centres unmarked) [isoproterenol]
HO-2 mRNA content [1]: remained unchanged
level of BVR mRNA [1]: increased
level of HO-1 mRNA [1]: transient increase
time for which increased levels of both proteins (BVR, HO-2) remained stable ([2]; 10 μM isoproterenol): up to 96 hours
time by which BVR protein expression was elevated [2, 3]: ≤ 8 h
time by which HO-2 protein level began to increase [2, 3]: ≤ 12 h
time by which HO-2 protein level reached a plateau [2, 3]: ≤ 24 h
HO-1 protein expression ([2]; isoproterenol treatment up to 96 hours): not detected
